Measurements published in publication PMC6009944, “Synthesis, antitumour activities and molecular docking of thiocarboxylic acid ester-based NSAID scaffolds: COX-2 inhibition and mechanistic studies” (Journal of Enzyme Inhibition and Medicinal Chemistry, 2018).
Like-named read-outs stand apart in the source and are kept apart here.

What was measured:
[1] = test system: HepG2; assay: MTT antitumor assay, HepG2; conditions: Homo sapiens, HepG2, read-out: IC50 (μM) HepG2
Experimental: (§2) The evaluation of the antitumour activity was performed using tetrazolium salt MTT (3–(4,5-dimethyl-2-thiazolyl)-2,5-diphenyl-2H-tetrazolium bromide) assay as reported[47–50].

[2] = test system: HCT-116; assay: MTT antitumor assay, HCT-116
Experimental: as §2

[3] = test system: Caco-2; assay: MTT antitumor assay, Caco-2; conditions: Homo sapiens, Caco-2, read-out: IC50 (μM) Caco-2
Experimental: as §2

[4] = test system: MCF-7; assay: MTT antitumor assay, MCF-7
Experimental: as §2

[5] = biological target: T1, HER2 (Homo sapiens, UniProt P04626); assay: Kinase inhibition assay (Kinase-Glo Plus), HER2; assay type: biochemical; conditions: read-out: % inhibition of 10 μM HER2; 10 μM compound
T1 construct: purchased BPS Bioscience
T1 sequence (P04626 23-1255): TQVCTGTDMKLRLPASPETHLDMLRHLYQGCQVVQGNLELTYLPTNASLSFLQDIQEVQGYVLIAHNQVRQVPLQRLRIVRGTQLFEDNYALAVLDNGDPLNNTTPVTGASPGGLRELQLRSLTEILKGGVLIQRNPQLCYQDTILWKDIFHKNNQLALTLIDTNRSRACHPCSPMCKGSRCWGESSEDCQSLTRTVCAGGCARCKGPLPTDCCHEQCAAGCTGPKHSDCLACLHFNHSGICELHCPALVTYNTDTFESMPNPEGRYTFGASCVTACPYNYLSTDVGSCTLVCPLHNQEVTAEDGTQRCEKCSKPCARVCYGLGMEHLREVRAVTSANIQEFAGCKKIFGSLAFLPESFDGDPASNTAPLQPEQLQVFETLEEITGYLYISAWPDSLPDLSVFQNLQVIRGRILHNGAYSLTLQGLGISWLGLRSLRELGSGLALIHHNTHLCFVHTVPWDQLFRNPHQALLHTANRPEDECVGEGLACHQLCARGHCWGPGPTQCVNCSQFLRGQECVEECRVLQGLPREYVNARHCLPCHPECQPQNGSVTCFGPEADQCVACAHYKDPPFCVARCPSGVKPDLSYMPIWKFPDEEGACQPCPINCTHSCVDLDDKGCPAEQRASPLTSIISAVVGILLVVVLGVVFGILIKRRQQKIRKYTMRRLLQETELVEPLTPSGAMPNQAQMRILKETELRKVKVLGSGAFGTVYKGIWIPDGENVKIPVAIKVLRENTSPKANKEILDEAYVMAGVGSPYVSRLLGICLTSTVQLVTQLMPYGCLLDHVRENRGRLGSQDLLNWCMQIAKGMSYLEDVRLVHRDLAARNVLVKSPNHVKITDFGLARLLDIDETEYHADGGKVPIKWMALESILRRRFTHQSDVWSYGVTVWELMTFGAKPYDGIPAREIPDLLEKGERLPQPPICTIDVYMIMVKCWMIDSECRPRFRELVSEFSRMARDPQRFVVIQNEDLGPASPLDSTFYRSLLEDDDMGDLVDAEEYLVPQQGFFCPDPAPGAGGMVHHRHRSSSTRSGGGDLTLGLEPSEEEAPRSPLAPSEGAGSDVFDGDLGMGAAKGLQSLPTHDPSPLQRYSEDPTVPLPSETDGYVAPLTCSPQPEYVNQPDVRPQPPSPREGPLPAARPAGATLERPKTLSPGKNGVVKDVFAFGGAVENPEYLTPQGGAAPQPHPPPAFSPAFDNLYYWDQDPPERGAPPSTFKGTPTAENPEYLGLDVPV
Experimental: (§1) Luminescence signal was measured using a BioTek Synergy 2 microplate reader.

[6] = biological target: T2, COX-2 (Ovis aries, UniProt P79208); assay: In vitro COX-2 enzyme inhibition assay (colorimetric kit); conditions: for SI, selectivity index (COX-1 IC50/COX-2 IC50): COX-2 selectivity over COX-1
T2 sequence (P79208 17-603): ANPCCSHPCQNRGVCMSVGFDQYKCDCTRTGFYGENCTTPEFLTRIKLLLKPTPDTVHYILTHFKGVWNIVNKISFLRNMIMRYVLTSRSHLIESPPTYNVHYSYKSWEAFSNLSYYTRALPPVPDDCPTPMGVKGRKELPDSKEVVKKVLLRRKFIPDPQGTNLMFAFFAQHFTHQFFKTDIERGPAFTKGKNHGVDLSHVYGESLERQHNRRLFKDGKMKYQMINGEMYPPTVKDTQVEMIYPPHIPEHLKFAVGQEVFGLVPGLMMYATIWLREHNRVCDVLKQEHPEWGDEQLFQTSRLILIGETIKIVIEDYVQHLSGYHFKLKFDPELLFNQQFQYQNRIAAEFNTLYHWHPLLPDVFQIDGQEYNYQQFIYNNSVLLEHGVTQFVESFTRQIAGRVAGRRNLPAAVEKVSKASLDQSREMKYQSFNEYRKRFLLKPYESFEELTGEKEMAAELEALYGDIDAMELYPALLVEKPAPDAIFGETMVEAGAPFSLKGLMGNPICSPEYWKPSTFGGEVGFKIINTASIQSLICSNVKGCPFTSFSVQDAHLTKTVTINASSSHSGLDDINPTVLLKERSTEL
Experimental: (§3) IC50 (represented in μM) (The half-maximal inhibitor concentration) values were determined[56–59], and the SI values were calculated[51]^,[52]^,[55] as IC50 (COX-1)/IC50 (COX-2).

[7] = biological target: T3, COX-1 (Ovis aries, UniProt P05979); assay: In vitro COX-1 enzyme inhibition assay (colorimetric kit)
T3 sequence (P05979 25-600): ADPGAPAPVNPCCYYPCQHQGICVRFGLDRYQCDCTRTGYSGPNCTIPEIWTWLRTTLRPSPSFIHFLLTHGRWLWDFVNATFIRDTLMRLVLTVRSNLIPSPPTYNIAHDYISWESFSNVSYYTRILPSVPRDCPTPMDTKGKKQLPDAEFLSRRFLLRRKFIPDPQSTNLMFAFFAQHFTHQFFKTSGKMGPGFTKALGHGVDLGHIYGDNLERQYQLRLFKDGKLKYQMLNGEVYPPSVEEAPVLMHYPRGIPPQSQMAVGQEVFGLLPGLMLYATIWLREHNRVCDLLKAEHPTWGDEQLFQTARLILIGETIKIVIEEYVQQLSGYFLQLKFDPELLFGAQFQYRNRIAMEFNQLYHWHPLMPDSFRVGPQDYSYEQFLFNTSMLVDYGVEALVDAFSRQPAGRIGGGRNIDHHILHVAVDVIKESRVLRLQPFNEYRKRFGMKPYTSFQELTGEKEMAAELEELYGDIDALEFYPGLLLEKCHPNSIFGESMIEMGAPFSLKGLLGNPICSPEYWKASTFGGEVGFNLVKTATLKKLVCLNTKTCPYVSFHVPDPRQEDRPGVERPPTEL
Experimental: as §3

[8] = biological target: T4, HER4 (Homo sapiens, UniProt Q15303); assay: Kinase inhibition assay (Kinase-Glo Plus), HER4; assay type: biochemical; conditions: read-out: % inhibition of 10 μM HER4; 10 μM compound
T4 construct: purchased BPS Bioscience
T4 sequence (Q15303 26-1308): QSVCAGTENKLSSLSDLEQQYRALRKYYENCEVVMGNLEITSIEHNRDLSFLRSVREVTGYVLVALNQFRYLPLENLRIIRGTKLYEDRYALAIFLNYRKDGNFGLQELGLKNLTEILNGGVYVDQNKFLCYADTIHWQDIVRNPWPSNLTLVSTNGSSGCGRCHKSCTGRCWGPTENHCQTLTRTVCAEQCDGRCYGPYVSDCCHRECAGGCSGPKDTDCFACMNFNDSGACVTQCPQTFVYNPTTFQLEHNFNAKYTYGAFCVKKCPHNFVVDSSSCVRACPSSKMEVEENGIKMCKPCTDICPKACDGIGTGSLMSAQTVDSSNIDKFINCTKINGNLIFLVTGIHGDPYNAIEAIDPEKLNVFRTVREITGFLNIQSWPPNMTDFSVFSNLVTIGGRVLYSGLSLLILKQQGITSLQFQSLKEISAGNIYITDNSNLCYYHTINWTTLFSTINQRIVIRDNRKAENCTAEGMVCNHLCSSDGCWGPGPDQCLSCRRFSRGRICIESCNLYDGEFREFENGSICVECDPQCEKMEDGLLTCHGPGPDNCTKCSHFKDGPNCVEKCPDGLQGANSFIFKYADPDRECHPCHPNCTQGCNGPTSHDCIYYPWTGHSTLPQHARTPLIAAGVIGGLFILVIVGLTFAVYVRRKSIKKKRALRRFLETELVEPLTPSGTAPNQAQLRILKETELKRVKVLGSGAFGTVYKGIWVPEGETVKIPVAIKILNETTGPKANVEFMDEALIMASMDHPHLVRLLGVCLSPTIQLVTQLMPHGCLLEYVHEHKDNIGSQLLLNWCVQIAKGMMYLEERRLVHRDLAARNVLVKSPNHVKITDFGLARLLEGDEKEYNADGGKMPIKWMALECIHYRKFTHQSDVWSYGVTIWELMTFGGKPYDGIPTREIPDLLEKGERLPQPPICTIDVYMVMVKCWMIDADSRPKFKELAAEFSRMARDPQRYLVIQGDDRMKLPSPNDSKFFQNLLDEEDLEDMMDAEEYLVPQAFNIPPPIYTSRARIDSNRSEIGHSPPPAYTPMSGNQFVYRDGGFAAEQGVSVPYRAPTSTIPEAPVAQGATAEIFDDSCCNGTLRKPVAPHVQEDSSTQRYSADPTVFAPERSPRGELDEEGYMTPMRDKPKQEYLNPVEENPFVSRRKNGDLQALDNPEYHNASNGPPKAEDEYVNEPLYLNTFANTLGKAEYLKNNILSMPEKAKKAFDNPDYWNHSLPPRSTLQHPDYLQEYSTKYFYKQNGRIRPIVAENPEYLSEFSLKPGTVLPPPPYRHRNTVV
Experimental: as §1

[9] = biological target: T5, EGFR (Homo sapiens, UniProt P00533); assay: Kinase inhibition assay (Kinase-Glo Plus), EGFR; assay type: biochemical; conditions: read-out: % inhibition of 10 μM EGFR; 10 μM compound
T5 construct: purchased BPS Bioscience
T5 sequence (P00533 25-1210): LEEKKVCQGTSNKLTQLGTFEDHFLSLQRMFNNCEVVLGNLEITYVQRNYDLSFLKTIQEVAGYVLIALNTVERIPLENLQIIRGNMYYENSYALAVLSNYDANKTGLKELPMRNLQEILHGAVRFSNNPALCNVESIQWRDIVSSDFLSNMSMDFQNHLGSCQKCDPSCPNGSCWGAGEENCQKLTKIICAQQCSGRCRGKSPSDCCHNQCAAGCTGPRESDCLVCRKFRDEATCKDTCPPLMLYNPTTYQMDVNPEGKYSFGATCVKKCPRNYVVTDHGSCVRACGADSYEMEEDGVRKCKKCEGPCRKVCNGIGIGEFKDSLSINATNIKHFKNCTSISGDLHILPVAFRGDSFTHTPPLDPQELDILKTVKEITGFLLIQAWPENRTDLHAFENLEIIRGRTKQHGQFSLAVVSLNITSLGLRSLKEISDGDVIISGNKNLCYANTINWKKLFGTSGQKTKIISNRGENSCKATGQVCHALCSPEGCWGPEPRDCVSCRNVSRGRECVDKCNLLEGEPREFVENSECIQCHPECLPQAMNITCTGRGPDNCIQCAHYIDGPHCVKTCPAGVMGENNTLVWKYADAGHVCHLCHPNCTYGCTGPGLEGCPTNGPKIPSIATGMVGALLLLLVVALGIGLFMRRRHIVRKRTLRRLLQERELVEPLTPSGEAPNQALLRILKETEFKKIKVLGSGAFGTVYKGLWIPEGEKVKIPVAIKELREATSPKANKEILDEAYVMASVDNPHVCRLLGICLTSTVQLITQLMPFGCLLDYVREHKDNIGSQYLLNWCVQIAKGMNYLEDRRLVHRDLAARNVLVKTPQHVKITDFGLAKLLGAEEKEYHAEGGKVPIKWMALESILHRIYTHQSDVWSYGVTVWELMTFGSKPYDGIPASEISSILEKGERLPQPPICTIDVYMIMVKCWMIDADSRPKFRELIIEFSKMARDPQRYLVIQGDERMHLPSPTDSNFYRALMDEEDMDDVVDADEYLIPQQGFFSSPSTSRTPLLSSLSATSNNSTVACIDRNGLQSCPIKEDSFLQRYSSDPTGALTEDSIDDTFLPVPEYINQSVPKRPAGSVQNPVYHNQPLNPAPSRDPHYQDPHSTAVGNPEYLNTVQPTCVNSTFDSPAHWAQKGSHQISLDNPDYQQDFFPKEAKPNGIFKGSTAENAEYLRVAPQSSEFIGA
Experimental: as §1

[10] = biological target: T6, cSrc (Homo sapiens, UniProt P12931); assay: Kinase inhibition assay (Kinase-Glo Plus), cSrc; assay type: biochemical; conditions: for inhibition at 10 µM: read-out: % inhibition, 10 μM compound
T6 construct: purchased BPS Bioscience
T6 sequence (P12931 whole entry): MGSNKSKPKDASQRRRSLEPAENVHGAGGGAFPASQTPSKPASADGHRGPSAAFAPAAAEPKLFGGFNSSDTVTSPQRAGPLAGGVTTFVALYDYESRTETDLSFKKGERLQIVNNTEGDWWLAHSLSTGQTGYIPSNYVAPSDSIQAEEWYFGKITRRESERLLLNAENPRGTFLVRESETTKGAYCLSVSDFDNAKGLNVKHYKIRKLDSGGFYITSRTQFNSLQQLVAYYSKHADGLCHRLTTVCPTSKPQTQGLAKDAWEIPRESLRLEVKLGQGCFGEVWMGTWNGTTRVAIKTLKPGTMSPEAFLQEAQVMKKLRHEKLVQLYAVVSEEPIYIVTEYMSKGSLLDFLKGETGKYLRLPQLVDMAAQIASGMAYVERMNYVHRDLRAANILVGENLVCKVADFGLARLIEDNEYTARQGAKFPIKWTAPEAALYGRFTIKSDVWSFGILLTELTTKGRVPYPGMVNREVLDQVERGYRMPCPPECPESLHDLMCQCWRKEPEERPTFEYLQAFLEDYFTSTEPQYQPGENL
Experimental: as §1

[11] = Homo sapiens, HCT-116, read-out: IC50 (μM) HCT-116, human colon cancer cell line, MTT, mean ± SD, n = 3
[12] = Homo sapiens, MCF7, read-out: IC50 (μM) MCF-7, human breast adenocarcinoma cell line, MTT, mean ± SD, n = 3
[13] = read-out: IC50 (μM) MCF-7, human breast adenocarcinoma cell line, MTT, mean ± SD, n = 3

Row | SMILES | IC50 [1] | IC50 [2, 11] | IC50 [3] | IC50 [4, 12] | IC50 ([2]; read-out: IC50 (μM) HCT-116, human colon cancer cell line, MTT, mean ± SD, n = 3) | IC50 [4, 13] | melting point | inhibition at 10 µM [5] | IC50 [6] | SI, selectivity index (COX-1 IC50/COX-2 IC50) [6] | IC50 [7] | inhibition at 10 µM [8] | inhibition at 10 µM [9] | inhibition at 10 µM [10] | IC50 ([2]; Homo sapiens, HCT-116, read-out: IC50 (μM) HCT-116) | IC50 ([4]; Homo sapiens, MCF7, read-out: IC50 (μM) MCF-7) | inhibition at 1 µM ([10]; read-out: % inhibition cSrc)
1 | CC(C)Cc1ccc(C(C)C(=O)Sc2ccccc2)cc1 (stereo not drawn) [1a, S-phenyl-2–(4-isobutylphenyl)propanethioate] | 85.1 ± 4.53 µM | 89.6 ± 4.68 µM | 94.8 ± 4.92 µM | 80.4 ± 4.58 µM | – | – | – | – | – | – | – | – | – | – | – | – | –
2 | CC(C)Cc1ccc(C(C)C(=O)SC2CCCCC2)cc1 (stereo not drawn) [1b, S-cyclohexyl-2–(4-isobutylphenyl)propanethioate] | > 100 µM | 97.6 ± 5.12 µM | > 100 µM | > 100 µM | – | – | – | – | – | – | – | – | – | – | – | – | –
3 | CC(C(=O)Sc1ccccc1)c1cccc(C(=O)c2ccccc2)c1 (stereo not drawn) [2a, S-phenyl-2–(3-benzoylphenyl)propanethioate] | 59.8 ± 3.55 µM | – | 72.2 ± 4.06 µM | – | 61.3 ± 3.97 µM | 48.1 ± 3.15 µM | 96 to 98 °C | – | – | – | – | – | – | – | – | – | –
4 | CC(C(=O)SC1CCCCC1)c1cccc(C(=O)c2ccccc2)c1 (stereo not drawn) [2b, S-cyclohexyl-2–(3-benzoylphenyl)propanethioate] | 9.36 ± 0.79 µM | 18.7 ± 1.5 µM | 21.7 ± 1.9 µM | 11.9 ± 1.13 µM | – | – | 69 to 70 °C | 1% | 0.66 ± 0.052 µM | >75.8 | > 50 µM | 5% | 0% | 4% | – | – | –
5 | CC(C(=O)Sc1ccccc1)c1ccc(-c2ccccc2)c(F)c1 (stereo not drawn) [3a, S-phenyl-2–(2-fluoro-[1,1′-biphenyl]-4-yl)propanethioate] | 68.8 ± 3.87 µM | 78.1 ± 4.08 µM | 76.5 ± 4.38 µM | 63.6 ± 3.62 µM | – | – | 85 to 86 °C | – | – | – | – | – | – | – | – | – | –
6 | CC(C(=O)SC1CCCCC1)c1ccc(-c2ccccc2)c(F)c1 (stereo not drawn) [3b, S-cyclohexyl-2–(2-fluoro-[1,1′-biphenyl]-4-yl)propanethioate] | 10.5 ± 0.98 µM | 23.8 ± 1.8 µM | 26.8 ± 2.17 µM | 13.7 ± 1.19 µM | – | – | 90 to 92 °C | 0% | 0.69 ± 0.057 µM | >72.5 | > 50 µM | 3% | 0% | 3% | – | – | –
7 | CC(=O)Oc1ccccc1C(=O)Sc1ccccc1 [4a, 2-[(Phenylthio)carbonyl]phenyl acetate] | 71.1 ± 4.11 µM | 85.4 ± 4.57 µM | 80.2 ± 4.5 µM | 73.7 ± 3.92 µM | – | – | 72 to 73 °C | – | – | – | – | – | – | – | – | – | –
8 | CC(=O)Oc1ccccc1C(=O)SC1CCCCC1 [4b, 2-[(Cyclohexylthio)carbonyl]phenyl acetate] | 63.6 ± 3.91 µM | 76.5 ± 4.22 µM | 68.8 ± 3.79 µM | 46.5 ± 2.84 µM | – | – | 55 to 56 °C | – | – | – | – | – | – | – | – | – | –
9 | O=c1[nH]cc(F)c(=O)[nH]1 [5-FU, 5-Fluorouracil, reference compound] | 7.91 ± 0.28 µM | 5.32 ± 0.17 µM | 6.85 ± 0.34 µM | 5.43 ± 0.2 µM | – | – | – | – | – | – | – | – | – | – | – | – | –
10 | COc1ccc2cc(C(C)C(=O)Sc3ccccc3)ccc2c1 [5a, S-phenyl-(S)-2–(6-methoxynaphthalen-2-yl)propanethioate] | 36.8 ± 2.7 µM | 51.2 ± 3.71 µM | 63.8 ± 3.58 µM | 42.6 ± 2.67 µM | – | – | 115 to 117 °C | – | – | – | – | – | – | – | – | – | –
11 | COc1ccc2cc(C(C)C(=O)SC3CCCCC3)ccc2c1 [5b, S-cyclohexyl-(S)-2–(6-methoxynaphthalen-2-yl)propanethioate] | 19.7 ± 1.57 µM | 39.5 ± 2.61 µM | 35.6 ± 2.62 µM | 28.9 ± 1.58 µM | – | – | 105 to 106 °C | – | – | – | – | – | – | – | – | – | –
12 | O=C(Cc1ccccc1Nc1c(Cl)cccc1Cl)Sc1ccccc1 [6a, S-phenyl-2–(2-((2,6-dichlorophenyl)amino)phenyl)ethanethioate] | 26.8 ± 2.08 µM | 46.9 ± 3.23 µM | 10.2 ± 0.92 µM | 6.11 ± 0.31 µM | – | – | 101 to 102 °C | 1% | 0.25 ± 0.017 µM | >200.0 | > 50 µM | 5% | 6% | 5% | – | – | –
13 | O=C(Cc1ccccc1Nc1c(Cl)cccc1Cl)SC1CCCCC1 [6b, S-cyclohexyl-2–(2-((2,6-dichlorophenyl)amino)phenyl)ethanethioate] | > 100 µM | 91.2 ± 4.96 µM | > 100 µM | – | – | 95.3 ± 4.96 µM | 88 to 90 °C | – | – | – | – | – | – | – | – | – | –
14 | COc1ccc2c(c1)c(CC(=O)Sc1ccccc1)c(C)n2C(=O)c1ccc(Cl)cc1 [7a, S-phenyl-2–(1-(4-chlorobenzoyl)-5-methoxy-2-methyl-1H-indol-3-yl)ethanethioate] | 7.86 ± 0.39 µM | 14.6 ± 1.24 µM | 18.1 ± 1.73 µM | 9.65 ± 0.96 µM | – | – | 133 to 135 °C | 0% | 0.22 ± 0.019 µM | >227.3 | > 50 µM | 4% | 0% | 1% | – | – | –
15 | COc1ccc2c(c1)c(CC(=O)SC1CCCCC1)c(C)n2C(=O)c1ccc(Cl)cc1 [7b, S-cyclohexyl-2–(1-(4-chlorobenzoyl)-5-methoxy-2-methyl-1H-indol-3-yl)ethanethioate] | 14.9 ± 1.38 µM | 34 ± 2.25 µM | 29.1 ± 2.45 µM | 17.1 ± 1.4 µM | – | – | 97 to 98 °C | 0% | 0.49 ± 0.044 µM | >102.0 | > 50 µM | 3% | 1% | 3% | – | – | –
16 | CC1=C(CC(=O)Sc2ccccc2)c2cc(F)ccc2C1=Cc1ccc([S+](C)[O-])cc1 (stereo not drawn) [8a, S-phenyl-2–(5-fluoro-2-methyl-1–(4-(methylsulfinyl)benzylidene)-1H-inden-3-yl)ethanethioate] | 7.35 ± 0.34 µM | 9.73 ± 0.85 µM | 15.4 ± 1.37 µM | 8.62 ± 0.72 µM | – | – | – | 0% | 0.2 ± 0.016 µM | >250.0 | > 50 µM | 10% | 6% | 4% | – | – | –
17 | CC1=C(CC(=O)SC2CCCCC2)c2cc(F)ccc2C1=Cc1ccc([S+](C)[O-])cc1 (stereo not drawn) [8b, S-cyclohexyl-2–(5-fluoro-2-methyl-1–(4-(methylsulfinyl)benzylidene)-1H-inden-3-yl)ethanethioate] | 22.3 ± 1.96 µM | 46.7 ± 2.93 µM | 43.8 ± 2.96 µM | 34.1 ± 2.07 µM | – | – | 121 to 122 °C | – | 0.6 ± 0.055 µM | >83.3 | > 50 µM | – | – | – | – | – | –
18 | CN(C)C/C=C/C(=O)Nc1cc2c(Nc3ccc(F)c(Cl)c3)ncnc2cc1O[C@H]1CCOC1 [Afatinib, reference compound] | 5.4 ± 0.25 µM | 6.2 ± 0.67 µM | 7.7 ± 0.57 µM | 7.1 ± 0.49 µM | – | – | – | – | – | – | – | – | – | – | – | – | –
19 | Cc1ccc(-c2cc(C(F)(F)F)nn2-c2ccc(S(N)(=O)=O)cc2)cc1 [Celecoxib, reference compound] | 25.6 ± 2.3 µM | – | 42.7 ± 3.1 µM | – | – | – | – | – | – | – | – | – | – | – | 29.5 ± 2.1 µM | 31.3 ± 2.5 µM | –
20 | CN[C@@H]1C[C@H]2O[C@@](C)([C@@H]1OC)n1c3ccccc3c3c4c(c5c6ccccc6n2c5c31)C(=O)NC4 [Staurosporine, reference compound] | – | – | – | – | – | – | – | – | – | – | – | – | – | – | – | – | 100%
